Experiments:
OV90 = assay: EC17 dependent anti-tumor activity, OV90 xenograft (Example 26); type: in vivo, NSG mice; settings: 500 nmoles/kg once per week, 5 million CAR-T
Source text: Immunodeficient NSG mice (Jackson Laboratory) were used to show the efficacy of CAR T cell anti-tumor activity with a single dose of EC17 per week. Two folate receptor expressing cancer cell lines were used to establish subcutaneous solid tumor xenografts: MDA-MB-231 has high folate receptor expression, while OV90 has low folate receptor expression. When tumor volume of around 100-250 mm^3 was reached, mice were divided into two groups. Mice in the “EC17 500 nmol/kg” group (nmol/kg is equivalent to nmoles/kg as used in this patent application for the bridge) were injected with 500 nmoles/kg of body weight of EC17, while mice in the “no EC17” group were not injected with EC17. Four hours later, mice in both groups were administered 5 million anti-FITC CAR-T cells. After initial administration of EC17 and CAR-T cells, only mice in the “EC17 500 nmol/kg” group were injected (i.v.) with 500 nmoles/kg of EC17 once per week. Anti-tumor efficacy was monitored by tumor volume.

KB cells = assay: Anti-fluorescein CAR T cell activity against KB cells in vitro (Example 43); type: cell-based; settings: CAR T:KB 10 to 1
Description: FR positive cancer cell lines (e.g. KB or MDA-MB-231 cells) were seeded at density of 10^4 cells/100 μl media into 96 well plates and grown overnight. Anti-fluorescein CAR T cells were added to each well in the absence or presence of bridge molecules. After co-incubation for 6-24 hours, plates were centrifuged at 350×g for 10 min to remove debris and supernatants were analyzed for lactate dehydrogenase release (cell death analysis) using Pierce™ LDH cytotoxicity assay kit (Thermo Fisher Scientific, MA) and interferon γ (IFNγ) levels using human IFNγ ELISA kit (Biolegend, CA), while pellets were either evaluated for CAR T cell activation by staining with anti-human CD69 APC (Clone: FN50, Biolegend, CA) or examined for CAR T cell proliferation by culturing for 5 days in TexMACS™ medium (Miltenyi Biotech Inc, CA) containing 1% penicillin and streptomycin sulfate and quantitating by flow cytometry using the intrinsic GFP fluorescence and staining with anti-human CD3 APC antibody (Clone:HIT3a, Biolegend, CA).

**Q.** For `Nc1nc2ncc(CNc3ccc(C(=O)NC(CCC(=O)NCCNC(=S)Nc4ccc(-c5c6ccc(=O)cc-6oc6cc(O)ccc56)c(C(=O)O)c4)C(=O)O)cc3)nc2c(=O)[nH]1` (stereo not drawn) [EC17, FITC-Folate], which anti-tumor activity (OV90) is on record?
**A.** Its anti-tumor activity is “EC17 dependent anti-tumor activity”.

**Q.** What about the IFNγ production (KB cells; 100 nM) of the same compound?
**A.** Its IFNγ production is “induced”.

**Q.** What about the “proliferation of anti-fluorescein CAR T cells” value (KB cells) of the same compound?
**A.** The value was “induced”.

Reference: patent US11759480B2, “Compositions and methods for CAR T cell therapy” (ENDOCYTE, INC., priority 2017, dated 2023)
